Measured values published in patent US9717806B2, “Method for detecting cancer using ICG fluorescence method” (Osaka Prefectural Hospital Organization, priority 2008, dated 2017).

How the values were obtained:
Format in all cases: in vivo, human
[1] = system: hepatocellular carcinoma; assay: Intraoperative ICG fluorescence detection of accessory lesions with infrared camera system PDE, primary liver cancer; settings: for confirmation of HCC areas by intraoperative PDE diagnosis: identification of main tumor by intraoperative ultrasonography was difficult
Experimental: (§1) Now the method of detecting an accessory cancer lesion using the accessory cancer lesion detector illustrated in FIG. 1 is described. First, the fluorescent dye indocyanine green is injected intravenously. After the lapse of a certain time (typically 1 to 10 days from the intravenous injection), when excitation light 10 of a certain wavelength (760 nm for instance) is irradiated on the target organ 20 from the excitation light source unit 2, a fluorescence image 11 in the near-infrared wavelength band is emitted by the accessory cancer lesion because of the indocyanine green. Here, the optical filter 3 allows the passage of the fluorescence image 11 while cutting off the reflected light coming from the target organ 20 that is being irradiated by the excitation light 10.
(§2) The fluorescence image 11 that passes through the optical filter 3 is captured by the CCD camera used as the imager 4, and the data of the observed image is output from the CCD camera to the controller 5. The controller 5 controls the brightness and contrast of the observed image coming from the imager 4. As a result, the observed image 15 (which includes the image of the main cancer lesion) containing the accessory cancer lesion image 16 is generated. […] Furthermore, if necessary, the observed image 15 is recorded on a recording medium in the image recorder 7.
(§3) In the examples 1 to 5 given below, the ICG (0.5 mg/kg) was injected intravenously a few days before the surgery. In other words, in the examples 1, 2, 3, 4, and 5, the intravenous ICG injection was administered, respectively, 4, 4, 8, 1, and 4 days before the surgery. […] In examples 1 to 4, the cancer was primary liver cancer, and in Example 5 it was metastatic liver cancer.

[2] = system: metastatic liver cancer; assay: Intraoperative ICG fluorescence detection of accessory lesions with infrared camera system PDE, metastatic liver cancer; settings: Example 5, person; ICG 0.5 mg/kg intravenously 4 days before surgery; S4 segment of the liver; histology: adenocarcinoma, metastasis of colon cancer into the liver
Experimental: as §1
as §2, with “7. […]” for “7.”

[3] = system: hepatocellular carcinoma; assay: PDE observation of cross-sections of resected, formalin-fixed liver slices after ICG injection; settings: Example 4, ICG 0.5 mg/kg intravenously 1 day before surgery, 3 mm thick slices, areas diagnosed as highly differentiated HCC
Experimental: as §3
Example 4 was a case of a person. Preoperative contrast CT detected the presence of a single HCC, 25 mm in diameter, in the S5 segment of the liver. FIG. 6A is an image showing the result of contrast CT. The arrow indicates the HCC. […] FIG. 6B is a near-infrared fluorescence intensity distribution image (measured after the abdomen was opened but before the resection) from ICG in the liver. The fluorescent area indicated by the arrow at left is the main tumor area (main lesion), and the two arrows (arrowheads) on the right indicate fluorescent areas (accessory lesions), 3 mm in diameter, observed around the main tumor. Based on the above measurements, more than one fluorescent area (accessory lesions), each 3 mm in diameter, were resected in addition to the main tumor (main lesion). Further, the resected liver was fixed in formalin and made into 3 mm thick slices (FIG. 6C and FIG. 6G), and the cross-sections observed with the PDE (FIG. 6D and FIG. 6H). […]

Q: With `CC1(C)C(/C=C/C=C/C=C/C=C2\N(CCCCS(=O)(=O)O)c3ccc4ccccc4c3C2(C)C)=[N+](CCCCS(=O)(=O)[O-])c2ccc3ccccc3c21` [ICG, indocyanine green] as the molecule, how does the “diameter of fluorescent area (accessory lesion) detected in addition to the main tumor” value ([1]; Example 1, person, ICG 0.5 mg/kg intravenously 4 days before surgery, S4 segment of the liver, not detected by contrast CT, histology: highly differentiated HCC) read?
A: 5 mm

Q: What about the “diameter of fluorescent area (accessory lesion)” value ([1]; Example 3, person, ICG 0.5 mg/kg intravenously 8 days before surgery, S5 segment of the liver, histology: slightly less differentiated HCC than the main tumor) of the same molecule?
A: 5 mm

Q: And the “confirmation of HCC areas by intraoperative PDE diagnosis” value ([1]; Example 3, ICG 0.5 mg/kg intravenously 8 days before surgery)?
A: could confirm the HCC areas (main and accessory lesions) as fluorescent areas

Q: And the “diameter of fluorescent areas (accessory lesions) observed around the main tumor” value ([1]; Example 4, person, ICG 0.5 mg/kg intravenously 1 day before surgery, histology: highly differentiated HCC)?
A: 3 mm

Q: And the “confirmation of HCC areas by intraoperative PDE diagnosis” value ([1]; Example 4, ICG 0.5 mg/kg intravenously 1 day before surgery)?
A: could confirm the HCC areas (main and accessory lesions) as fluorescent areas

Q: What about the “diameter of fluorescent area (accessory lesion) detected apart from the two lesions identified before the surgery” value [2] of the same molecule?
A: 5 mm

Q: And the “near-infrared fluorescence in cross-sections of resected liver” value [3]?
A: light emission from areas where no nodule was detected macroscopically
